Reference: patent publication EP0028063A1, “Phenol derivatives, processes for their preparation and pharmaceutical compositions containing them” (GLAXO GROUP LIMITED, priority 1979, dated 1981)

What was measured:
SRS-A = experiment: Antagonism of the action of SRS-A on guinea-pig isolated ileum (method of Coleman et al.; pA2 by Arunlakshana and Schild); type: cell-based; conditions: Cavia porcellus, SRS-A induced contraction, compounds tested at concentrations of 10^-6 M
From the text: The compounds according to the invention are potent antagonists of the action of slow reacting substance of anaphylaxis (SRS-A) as shown by their ability to inhibit the SRS-A induced contraction of guinea pig ileum (Coleman et al, Br. J. Pharmacol., 1979, 66, 83P). SRS-A is a naturally occurring substance which causes contraction of smooth muscle, especially bronchial muscle, and increases vascular permeability. The substance is not normally present in human tissue but is synthesised and released from certain cells during an allergic reaction. The compounds according to the invention are thus indicated for use in the treatment of disorders in which SRS-A may be a factor, for example, in obstructive airways diseases such as asthma, in hay fever and in skin afflictions.
The ability of the compounds to act as antagonists of the action of SRS-A was shown using guinea-pig isolated ileum according to the methods of Coleman et al, Br. J. Pharmacol., (1979), 66, 83P. Compounds were tested at concentrations of 10^-6 M and pA2 values were determined using the standard procedures of Arunlalkshana and Schild, Br. J. Pharmac.

dogs = experiment: Oral tolerability in dogs; type: in vivo; conditions: given orally to dogs at doses of up to 10 mg/kg
From the text: The compounds are in general non-toxic at therapeutically useful doses.

Row | SMILES | Kb (SRS-A) [nM] | adverse effects (dogs)
1 | CCCc1c(OCCCOc2ccc(C(=O)O)c(O)c2)ccc(C(C)=O)c1O [Example 8, 4-[3-(4-Acetyl-3-hydroxy-2-propylphcnoxy)propoxy]-2-hydroxybenzoic acid] | 15.8 | no adverse effects
2 | CCCc1c(OCCCOc2cccc(C=CC(=O)O)c2)ccc(C(C)=O)c1O [Example 2a, 3-[3-[3-(4-Acetyl-3-hydroxy-2-propylphenoxy)propoxy]-phenyl]-2-propenoic acid] | 39.8 | no adverse effects
3 | CCCc1c(OCCCOc2ccc(OCC(=O)O)cc2)ccc(C(C)=O)c1O [Example 1g] | 100 | 
4 | CCCc1c(OCCCCCOc2cccc(C=CC(=O)O)c2)ccc(C(C)=O)c1O [Example 4b, 3-[3-[5-(4-Acetyl-3-hydroxy-2-propylphenoxy)pentyloxy]phenyl]-2-propenoic acid] | 50.1 | 
5 | CCCc1c(OCCCOc2cccc(CCC(=O)O)c2)ccc(C(C)=O)c1O [Example 5, 3-[3-(4-Acetyl-3-hydroxy-2-propylphenoxy)propoxy]bepzene propanoic acid] | 50.1 | no adverse effects
6 | CCCc1c(OCCCOc2cccc(-c3nn[nH]n3)c2)ccc(C(C)=O)c1O [Example 10b, 5-[3-[3-[4-Acetyl-3-hydroxy-2-propylphenoxy]propoxy]-phenyl]-lH-tetrazole] | 79.4 | 
7 | CCCc1c(OCCCOc2cc(C=CC(=O)O)ccc2[N+](=O)[O-])ccc(C(C)=O)c1O [Example 9b, 3-[3-[3-[4-Acetyl-3-hydroxy-2-propylphenoxy]propoxy]-4-nitrophenyl]-2-propenoic acid] | 31.6 | 
8 | CCCc1c(OCCCOc2ccc(C(=O)O)c(O)c2CCC)ccc(C(C)=O)c1O [Example 2c, 4-(3-(4-Aceltyl-3-hydroxy-2-propylphenoxy)propoxy] -2-hydroxy-3-propylbenzoic acid] | 39.8 | 
